Laboratory results as given in US6608073B1 (New Millennium Pharmaceutical Research, Inc., priority 1998, dated 2003).

Legend:
[1] = Plasma levels of codeine in rats after intravenous or intranasal administration (HPLC)
Description: One hundred μL of rat plasma was treated with 100 μL of acetonitrile to precipitate the proteins. This mixture was centrifuged for 5 minutes at 5,000×g. The clear supernatant was injected onto the HPLC column.
The HPLC system included the following:
Column: Altex 5 micron Ultrasphere, 4.6 mm×25 cm
Mobile Phase: Acetonitrile: 0.01 M Acetate buffer (pH 4.0)−50:50
Standard Curve: See FIG. 1

[2] = Penetration of codeine into CSF of rats after intravenous or intranasal administration (HPLC); conditions: 60 minutes post-dose
Description: At 60 minutes post-dose, the rats were sacrificed, and the CSF (0.1 ml) was recovered and injected directly onto the HPLC column.

[3] = in vivo; cited from earlier work
[4] = rat, plasma, inhaled or intranasal, 10 mg/kg
[5] = rat, plasma, other: intranasal, 5 mg/kg
[6] = rat, plasma, other: intranasal, 10 mg/kg

Question: Which results are given for `COc1ccc2c3c1O[C@H]1[C@@H](O)C=C[C@H]4[C@@H](C2)N(C)CC[C@@]341` [Codeine]?
Answer: AUC(0-t) ([1]; rat, plasma, inhaled or intranasal, 5 mg/kg): 1480 ng·h/mL; AUC(0-t) [1, 4]: 2840 ng·h/mL; bioavailability [1, 4]: 115%; AUC(0-t) ([1]; rat, plasma, iv, 10 mg/kg): 2460 ng·h/mL; concentration at 0 min ([1]; rat, plasma, iv, 10 mg/kg): 19400 ng/mL; concentration at 2 min ([1]; rat, plasma, iv, 10 mg/kg): 9400 ng/mL; concentration at 5 min ([1]; rat, plasma, iv, 10 mg/kg): 5200 ng/mL; concentration at 10 min ([1]; rat, plasma, iv, 10 mg/kg): 2700 ng/mL; concentration at 20 min ([1]; rat, plasma, iv, 10 mg/kg): 2040 ng/mL; concentration at 40 min ([1]; rat, plasma, iv, 10 mg/kg): 1220 ng/mL; concentration at 60 min ([1]; rat, plasma, iv, 10 mg/kg): 860 ng/mL; concentration at 0 min [1, 5]: 0 ng/mL; concentration at 2 min [1, 5]: 840 ng/mL; concentration at 5 min [1, 5]: 2880 ng/mL; concentration at 10 min [1, 5]: 3150 ng/mL; concentration at 20 min [1, 5]: 2240 ng/mL; concentration at 40 min [1, 5]: 600 ng/mL; concentration at 60 min [1, 5]: 560 ng/mL; concentration at 0 min [1, 6]: 0 ng/mL; concentration at 2 min [1, 6]: 1400 ng/mL; concentration at 5 min [1, 6]: 5100 ng/mL; concentration at 10 min [1, 6]: 7620 ng/mL; concentration at 20 min [1, 6]: 3320 ng/mL; concentration at 40 min [1, 6]: 1420 ng/mL; concentration at 60 min [1, 6]: 1100 ng/mL; Absorption following intranasal administration compared with intravenous ([1]; rats, IN vs IV): rapidly and completely absorbed; CSF levels for 5 mg/kg intranasally compared with 10 mg/kg intravenously [2]: much higher; Half-life in plasma [3]: 2 to 4 h
